Measured values taken from patent publication US12502388B2, “Lanthionine synthetase C-like 2-based therapeutics” (NImmune Biopharma, Inc., priority 2014, dated 2025).
pKd: −log10 of the molar value. “Also recorded” adds a separate entry of the source.

Assays:
LANCL2 = biological target: T1, LANCL2 (Homo sapiens, UniProt Q9NS86); assay: Surface plasmon resonance (BIACORE T200) binding to immobilized LANCL2; conditions: for pKd: unit inferred, read-out: SPR KD value
T1 sequence (Q9NS86 1-450): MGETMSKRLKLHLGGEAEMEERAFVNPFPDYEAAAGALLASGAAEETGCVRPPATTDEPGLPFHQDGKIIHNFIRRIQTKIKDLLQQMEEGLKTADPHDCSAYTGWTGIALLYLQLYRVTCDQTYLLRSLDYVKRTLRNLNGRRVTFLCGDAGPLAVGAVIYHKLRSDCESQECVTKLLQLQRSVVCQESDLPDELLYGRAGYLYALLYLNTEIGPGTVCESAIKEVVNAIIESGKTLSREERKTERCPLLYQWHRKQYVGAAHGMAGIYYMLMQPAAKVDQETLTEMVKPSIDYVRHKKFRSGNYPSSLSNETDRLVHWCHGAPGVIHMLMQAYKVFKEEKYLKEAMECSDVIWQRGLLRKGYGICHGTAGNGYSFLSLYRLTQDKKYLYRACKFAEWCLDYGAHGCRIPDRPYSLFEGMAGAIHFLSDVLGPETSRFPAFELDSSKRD
Source text: Kinetic determination of LANCL2-small molecule interaction. […] Data were generated in a dose dependent (5-8 titration points) manner in triplicate, and analyzed to determine binding model (Langmuir, conformational shift, etc.), real time associated and disassociation constants, and equilibrium dissociation constant. SPR technology allowed validation of specific LANCL2-phytochemical interactions as well as to gain gold-standard insight into mechanism and rate of binding. The experiments were performed on carboxymethyldextran (CM5) sensor chips by covalently attaching LANCL2 to by amine coupling. Flow cells 1 and 2 of the sensor chip were activated for 720 sec at 10 μl/min with of 1:1 mixture of 0.1 M N-hydroxysuccinimide (NHS) and 0.5 M 1-ethyl-3-(−3-dimethylaminopropyl)-carbodiimide hydrochloride (EDC). Stock LANCL2 (0.41 mg/mL) was diluted to 8.2 μg/mL (1:50 dilution) in 10 mM sodium acetate, pH 5.0 and injected over the activated flow cell 2 surface for 1000 sec at a flow rate of 10 μl/min. After the capture of LANCL2 on flow cell 2 (11000 RU), surfaces of flow cells 1 and 2 were deactivated by injecting 1M ethanolamine for 720 sec at 10 μl/min. The running buffer was 25 mM MOPS containing 0.05% T-20 and 0.15 M NaCl, pH 6.5. […] Each sample was injected for 60 sec (contact time) followed by a dissociation time of 60 sec at a flow rate of 100 μL/min. A stabilization time of 180 sec was used before the next injection. Data was analyzed with BIACORE™ T200 Evaluation Software (version 1) to determine the affinity binding constant (KD) using a 1:1 binding model.
We immobilized purified recombinant LANCL2 protein on BIACORE™ sensor chips and injected small molecules over the protein surface using the microfluidic system of the instrument. Changes in the total mass on chip surface were measured, which corresponds to the small binding to the protein. […] These fast interactions are beyond the technical abilities of the instrument. Therefore, reliable association rate constant (ka) and dissociation rate constant (kd) were not determined. The equilibrium dissociation constant (KD) is commonly used to describe the affinity between a ligand and a protein, such as how tightly a ligand binds to a particular protein. Ligand-protein affinities are influenced by non-covalent intermolecular interactions between the two molecules such as hydrogen bonding, electrostatic interactions, hydrophobic and Van der Waals forces. By plotting the equilibrium binding level against the compound concentration, we were able to measure the steady state affinity (KD) for each interaction (FIG. 8, panels B and D).
In this case we also immobilized purified recombinant LANCL2 protein on BIACORE™ sensor chips and injected small molecules over the protein surface using the microfluidic system of the instrument. Changes in the total mass on chip surface were measured, which corresponds to the small binding to the protein. […] This longer binding can potentially impact the activation of the LANCL2 pathway by triggering more efficacious anti-inflammatory and anti-diabetic and other therapeutic responses.

[1] = system: C57BL/6J mice with DSS colitis
Experimental: Mice. […] All mice were maintained in animal facilities.
DSS-induced colitis. Colitis was induced in C57BL/6J mice by administration of 5% (w/v) dextran sodium sulfate (DSS; molecular weight 42 kDa; ICN Biochemicals, Aurora, OH) added to the drinking water. Colonic inflammation was assessed 7 days after DSS treatment. […] DSS-treated, vehicle-treated mice, and iv. […] Twelve mice were included in each group.
Quantitative Real-Time PCR. […] Primers were designed using Oligo 6 software.

[2] = system: mice infected with influenza virus
Experimental: Intranasal infection of mice with influenza virus. Mice were anesthetized with 2-5% isofluorane using a vaporizer station, and 50 μL of virus dilution at 10^3 TCID50 was administered through the nostrils (25 μL each one). Mice were then placed in their cages and watched for recovery of anesthesia.
This procedure caused no pain or distress.
Monitoring of mice and disease activity and weighing. Mice were monitored once daily after the infection (or every 4 hours if they developed severe clinical signs of disease equivalent to disease score 2) and were euthanized prior to the planned endpoint if they developed significant signs of illness as measured by weight loss (i.e., 25% gradual loss of initial body weight), dehydration, loss of mobility, guarding/protection of painful area, ruffled fur (piloerection). Mice were weighed once a day for the duration of the experiment.

[3] = system: RAG2-/- mice transferred with naive CD4+ T cells
[4] = system: C57BL/6 mice fed a high-fat diet
[5] = system: IL-10-/- mice with chronic colitis
[6] = flow cytometry, wild-type vs LANCL2-/-
[7] = CD4+ T cells from LANCL2-/- donors
[8] = gene expression vs untreated mice
[9] = gene expression, dose-dependent

Source text for NOD mice: Mice. […] The mice were maintained in animal facilities.
(§1) Assessment of body weight and glucose tolerance.
Source text for db/db mice: Mice and dietary treatments. […] The mice were maintained in animal facilities.
as §1

O=C(c1cccc(-c2nc3ccccc3[nH]2)n1)N1CCN(C(=O)c2cccc(-c3nc4ccccc4[nH]3)n2)CC1 [BT-11]
fasting blood glucose (NOD mice; 12 h fasting, weeks 0-11, 80 mg/kg/d vs vehicle): significantly lower levels | clinical histopathological lesions in the pancreas (NOD mice; vs vehicle): significantly reduces | insulin levels in plasma (NOD mice; week 5): significantly increased levels | glucose levels following glucose challenge (db/db mice; 0 to 265 minutes after IP glucose): fell toward normal levels more rapidly | fasting blood glucose (db/db mice; 80 mg/Kg daily oral gavage, weeks 1 and 3): significantly decreased | glucose prior to the IP glucose challenge (time 0) (db/db mice; 12-h fast): significantly decreases | binding to LANCL2 by SPR in words (LANCL2): strongly bind | on and off rates in SPR sensorgrams (LANCL2): very fast on rates and very fast off rates | pKd (LANCL2): 5.20 | disease activity score ([1]; 5% DSS, 7-day challenge, oral BT-11 vs vehicle): significantly improved | leukocytic infiltration, mucosal thickening and epithelial erosion, dose-response ([1]; 10 to 80 mg/Kg): decreased in mice with colitis as the dose of BT-11 was increased | histopathological lesions of the colonic mucosa in LANCL2-/- mice ([1]; LANCL2-/- mice, vehicle or BT-11): the loss of LANCL2 completely abrogates the effect of BT-11 | upregulation of IL-10 secretion in colon and spleen ([1]; LANCL2 knockout mice): completely abrogated in LANCL2 knockout mice | decrease of inflammation in the gut mucosa (leukocytic infiltration, epithelial erosion, mucosal thickening) ([1]; colonic histopathology): 5 times | macroscopic lesions in spleen, MLNs and colon ([1]; day 7 post-challenge): significantly decreased | colonic IL-10 expression by flow cytometry ([1]; dose-response study): follows dose-response dynamics | FOXP3 expression in the MLN ([1]; dose-response study, flow cytometry): dose-dependent | upregulation of MHC-II+ CD11c+ granulocytes ([1]; flow cytometry, colon, wild-type vs LANCL2-/-): LANCL2-dependent | reduction of colonic TNFα expressing cells ([1]; flow cytometry, doses 10, 20, 40, 80 mg/Kg): significantly different at both 40 and 80 mg/Kg of BT-11, but not on lower doses | reduction of MCP1 in colon and MLN [1, 6]: LANCL2-dependent | secretion of TNFα in the colon [1, 6]: LANCL2-dependent | colonic gene expression of IL-10 ([1]; mouse, in vivo): upregulated | colonic gene expression of LANCL2 ([1]; mouse, in vivo): upregulated | colonic gene expression of TNFα ([1]; mouse, in vivo): down-regulated | macroscopic score in colon, MLN and spleen in LANCL2-/- mice ([1]; wild-type vs LANCL2-/- littermates): the loss of LANCL2 abrogated the decrease in macroscopic score | recovery from colitis (disease activity index) in LANCL2-/- mice ([1]; wild-type vs LANCL2-/- mice): the loss of LANCL2 prevented the mice to recover | morbidity (mice losing over 15% of body weight) ([2]; 80 mg/Kg, from day 6 post-infection, vs vehicle): less morbidity | clinical score for physical appearance ([2]; 40 and 80 mg/Kg): significantly reduced | activity clinical score ([2]; from day 3, oral 80 or 40 mg/Kg daily): significantly reduced | effects on disease activity and histopathology with PPARγ-/- donor CD4+ T cells ([3]; 80 mg/Kg): PPARγ independent | macroscopic scores in spleen, MLNs, colon and ileum ([3]; 80 mg/Kg, 11 weeks): greatly and significantly reduced | decrease in leukocytic infiltration, epithelial erosion and mucosal thickening in LANCL2-/- transferred recipients [3, 7]: greatly abrogated | effect on disease activity index with LANCL2-/- donor cells [3, 7]: completely abrogated with the loss of LANCL2 | macroscopic scores with loss of LANCL2 ([3]; LANCL2-/- cells transferred, 80 mg/Kg): the loss of LANCL2 completely abrogated the effect of BT-11 | IFNγ levels in total CD45+ leukocytes in the colon ([3]; flow cytometry): decrease | IL-10 in CD4+ T cells in the colonic mucosa ([3]; flow cytometry): promoting the expression | expression of IFNγ in the CD45+ population in MLN and spleen ([3]; flow cytometry): decreased | levels of FOXP3 and IL-10 in spleen and MLN ([3]; flow cytometry): increases | regulatory CD4+ T cells (FOXP3) in the colonic mucosa ([3]; flow cytometry): upregulated | infiltrating F4/80+ CD11b+ pro-inflammatory macrophages in the colon ([3]; flow cytometry, 11 weeks of treatment): significantly lower level | weight loss ([3]; from 7 weeks until end, vs vehicle): significantly improved | epithelial erosion in the colon ([3]; histopathology): significantly lower | inflammation: leukocytic infiltration and mucosal thickening in colon and ileum ([3]; histopathology): significantly reduced inflammation | disease activity index score ([3]; wild-type CD4+ T cells transferred, BT-11 vs vehicle): significantly reduced | normalization of blood glucose after IP glucose challenge ([4]; 2 g/Kg glucose IP after 12 h fasting): significantly faster | F4/80+ CD11b+ pro-inflammatory macrophages in white adipose tissue ([4]; flow cytometry): significantly reduced | pro-inflammatory granulocytes (GR1+Ly6chigh) in white adipose tissue ([4]; flow cytometry): significantly reduced | expression of LANCL2 in WAT [4, 8]: higher expression levels | mRNA level of MCP-1 in WAT [4, 8]: significantly lower mRNA levels | mRNA level of TNFα in WAT [4, 8]: significantly lower mRNA levels | fasting blood glucose ([4]; week 12 of high-fat feeding, vs vehicle): significantly decreased | disease activity index scores, highest dose vs lower doses ([5]; 80 mg/Kg, from week 13 to end): significantly reduced the scores in comparison to those treated with either 20 or 40 mg/Kg | macroscopic scores in spleen, MLNs and colon ([5]; 19 weeks, concentrations as low as 20 mg/Kg): greatly and significantly reduced | disease activity index scores ([5]; 20, 40 and 80 mg/Kg vs vehicle): significantly decreased | colonic histopathology (leukocytic infiltration, epithelial erosion, mucosal thickening) ([5]; H&E colon sections): significantly reduced inflammation | FOXP3-expressing CD4+ T cells in MLN and spleen ([5]; flow cytometry): upregulation | FOXP3-expressing CD4+ T cells in the colonic LP ([5]; flow cytometry): upregulation | effector Th17 cells (RORγt) in the MLN ([5]; flow cytometry): downregulated | percentage of F4/80+ macrophages in colonic lamina propria ([5]; flow cytometry): significantly decreased | percentage of MHC-II+ CD11c+ dendritic cells in colonic lamina propria ([5]; flow cytometry): significantly decreased | percentage of effector Th1 cells in colonic lamina propria ([5]; flow cytometry): significantly decreased | Th1 cells in the spleen ([5]; flow cytometry, dose response): downregulation | colonic expression of LANCL2 [5, 9]: upregulates | colonic expression of TNFα [5, 9]: downregulates

O=C(Nc1ccc(NC(=O)c2cccc(-c3nc4ccccc4[nH]3)c2)cc1)c1cccc(-c2nc3ccccc3[nH]2)c1 [BT-6]
binding to LANCL2 by SPR in words (LANCL2): strongly bind | on and off rates in SPR sensorgrams (LANCL2): very fast to bind but not as fast as off

O=C(c1cccc(-c2nc3ccccc3[nH]2)n1)N1CCN(C(=O)c2cccc(-c3nc4ccccc4o3)n2)CC1 [BT-15]
binding to LANCL2 by SPR in words (LANCL2): strongly bind | on and off rates in SPR sensorgrams (LANCL2): very fast on rates and very fast off rates | pKd (LANCL2): 4.94

O=C1CC=C(/C=C/c2ccc(C(=O)O)o2)CC1 [BT-ABA-5a]
binding to LANCL2 by SPR in words (LANCL2): strongly bind | on and off rates in SPR sensorgrams (LANCL2): very fast to bind but not as fast as off; also recorded: slowest off rate
